The text below walks through data of patent US11472844B2, “Peptidomimetics, method of synthesis and uses thereof” (priority 2017, dated 2022).

“Also recorded” adds a separate entry of the source. *: point of attachment. X1 = CC[N+]1=C(/C=C/C=C/C=C2N(CCCCCC(=O)NCCN3C(=O)CC(*)C3=O)c3ccc(S(=O)(=O)O)cc3C2(C)C)C(C)(C)c2cc(S(=O)(=O)[O-])ccc21

Data set [1] deals with colonic mucus layer and infiltrated neutrophils. In words: Human colonic explant infected with Shigella flexneri, two-photon microscopy. The following applies: 1 μg/mL, after fixation and permeabilization. The source says: Ex vivo infection of human colonic tissue. Human colon explants were infected with S. flexneri 5a (M90T) pGFP, as described in (Nothelfer et al. 2014) and adapted from (Coron et al. 2009). Briefly, colonic tissues were cut into ˜5 cm^2 segments and pinned flat, with the submucosa facing down, onto a 4% agarose layer in tissue culture Petri dishes containing DMEM/F12 culture medium (Invitrogen) supplemented with 10% FBS, glutamine, and 2.1 g/L NaHCO3(Sigma-Aldrich). S. flexneri (M90T) 5a pGFP was added at ˜2×10^8 bacteria per cm^2 of tissue. Bacteria were allowed to settle for 15 min at room temperature before incubation at 37° C., 5% CO2 for 6 h on a slowly rocking tray. Tissue was fixed by overnight incubation with 4% PFA (Euromedex) and 0.1 M Hepes (Gibco) in PBS. For whole-mount staining, tissues were fixed on a 40×11-mm tissue culture dish (TPP) with Histoacryl tissue glue (Braun). To obtain 150-μm-thick sections, the tissue was embedded in low-melting agarose according to (Snippert et al. 2011) and cut with a vibratome (VT1000E; Leica).
Two-photons microscopy. […] MUB40-Cy5 was detected using multiphoton excitation (MPE, magenta), Acquisitions were performed with Zen 2008 SP 1.1 software acquisition package developed by ZEISS. […]

In data set [2] the test system is Colonic goblet cell granules. Kind of data set: Fluorescent labelling of colonic goblet cell granules on fixed slides. Type of data set: cell-based, human. The following applies: 1 μg/mL. On the procedure:
(§1) Colon explant surgical collection. In summary, human colon segments (ascending, descending, and sigmoid colon) were obtained from fully informed patients undergoing surgery for colon carcinoma and were analyzed anonymously. Patient written consent was obtained, according to the French bioethics law. None of the patients had undergone radiotherapy or chemotherapy. According to the pathologist's examination rules for the longitudinally bisected colon, a healthy segment of tissue, which was distant from the tumor region and devoid of metastatic cells, was removed. Tissues were processed according to the French Government guidelines for research on human tissues and the French Bioethics Act with the authorization no RBM 2009-50.
(§2) Antibodies, fluorescent markers. For immunofluorescence assay, lactoferrin was detected with a mouse anti-lactoferrin primary monoclonal antibody (Hycult biotech, clone 265-1K1, 1:50 dilution) and an anti-mouse-FITC conjugated secondary antibody (1:1000). Nuclei were detected with DAPI (Life Technologies), Lyophilized MUB40 peptides (MUB40#1 (SEQ ID NO: 3)-Cy5, MUB40#2 (SEQ ID NO: 4)-Cy5, MUB40#3 (SEQ ID NO: 5)-Cy5, MUB40#4 (SEQ ID NO: 6)-Cy5, MUB40#1 (SEQ ID NO: 3)-Dylight, RI-MUB40 (SEQ ID NO: 2)-Cy5, and RI-MUB40 (SEQ ID NO: 2)-Biotin) were solubilized in a phosphate buffer pH8 at a 1 mg/mL concentration and used at a 1:1000 dilution. […]

For the next data set, the target named is trypsin (Sus scrofa, UniProt P00761). The following applies: trypsin digestion, 37°C, pH8, followed up to 24 h. The method, then: Trypsin proteolysis. MUB40 (SEQ ID NO: 3)-Cy5 and RI-MUB40 (SEQ ID NO: 2)-Cy5 were dissolved in 50 mM ammonium bicarbonate, pH 8. Prior to digestion and owing to the propensity of maleimide derivatives to undergo ring-opening in a basic environment (Fontaine et al., 2015), we incubated both peptides at 37° C. overnight. Ring-opening completion was checked before trypsin addition. […] Lyophilized trypsin (Thermo scientific) was reconstituted using 50 mM acetic acid, diluted with 50 mM ammonium bicarbonate and added to the peptide solution so as to obtain a final peptide concentration of 0.25 mg/mL and a protease to protein ratio of 1:20 (w/w). Samples were directly incubated on the injection sampler thermostated at 37° c. HPLC and LC-MS analyses were performed as previously described above, applying a 15% to 40% linear gradient of acetonitrile in 10 mM ammonium acetate over 20 minutes.
Hydrolysis experiments were done in solution at 37° c., pH8 and monitored by HPLC by measuring the peak area of the remaining intact peptides.

Data set [3] concerns human neutrophil granules. Kind of data set: Fluorescent labelling of fixed purified human neutrophils. Type of data set: cell-based. The following applies: 1 μg/mL. On the procedure:
(§3) Fixation and staining procedures. For microscopy studies, purified or cultured cells and polymerized lactoferrin were resuspended onto 24-well plates containing 12 mm coverslips in RMPI 1640+10 mM Hepes (when cultured in the autologous plasma) and centrifuged at 300×g for 10 min. Culture media were removed and cells were fixed in 4% Paraformaldehyde (PFA) for two hours. Fixed cells were washed three times in PBS+0.1% saponin (Sigma-Aldrich), prior immunolabeling with primary antibodies in the same buffer for 1 hour (Triton 0.1% can alternatively be used for cell permeabilization). After three additional washes in PBS+0.1% saponin, secondary antibodies and fluorescent markers were incubated for one hour. Coverslips were washed three time in PBS+0.1% saponin, three times in PBS, and three times in deionized H2O and mounted with prolong gold^tm mounting media.
Antibodies, fluorescent markers. For immunofluorescence assay, lactoferrin was detected with a mouse anti-lactoferrin primary monoclonal antibody (Hycult biotech, clone 265-1K1, 1:50 dilution) and an anti-mouse-FITC conjugated secondary antibody (1:1000). Nuclei were detected with DAPI (Life Technologies), Lyophilized MUB40 peptides (MUB40#1 (SEQ ID NO: 3)-Cy5, MUB40#2 (SEQ ID NO: 4)-Cy5, MUB40#3 (SEQ ID NO: 5)-Cy5, MUB40#4 (SEQ ID NO: 6)-Cy5, MUB40#1 (SEQ ID NO: 3)-Dylight, RI-MUB40 (SEQ ID NO: 2)-Cy5, and RI-MUB40 (SEQ ID NO: 2)-Biotin) were solubilized in a phosphate buffer pH8 at a 1 mg/mL concentration and used at a 1:1000 dilution. For PBMC staining CD19-APC (B lymphocytes), CD3-APC (T lymphocytes), and CD14-PercP (monocytes, macrophages) (BD Bioscience) were used at a 1:1000 dilution together with Dapi (1:1000) and MUB40-Cy5 (1 mg/mL). Actin was stained with Phalloidin-Rhodamine red X (RRX) (Jackson Immunoresearch Antibodies) used at a 1:1000 final dilution.
Polymorphonuclear neutrophils purification. Human polymorphonuclear neutrophils were purified as described previously (Monceaux et al. 2016). Briefly, plasma was removed by centrifugation (450×g, 15 min); blood cells were resuspended in 0.9% NaCl solution supplemented with 0.72% Dextran. After red blood cells sedimentation, white blood cells were pelleted and further separated on a two layer Percoll (GE Healthcare) (51%−42%) by centrifugation (at 240×g, 20 min). PBMC (top layer) were isolated from polymorphonuclear neutrophils (bottom layer). Red blood cells were removed from the latter fraction using CD235a (glycophorin) microbeads (negative selection) (Miltenyi Biotec). PBMCs and polymorphonuclear neutrophils were resuspended in the autologous plasma. Guinea pig and mouse polymorphonuclear neutrophils were purified with the same procedure.
Confocal microscopy. […]

In the next data set the test system is human colonic mucus. Kind of data set: Fluorescent labelling of human colonic mucus layer. Type of data set: binding. The following applies: 1 μg/mL; listed as MUB40#1-Cy5. On the procedure: as §1
as §3, with “Coverslips were washed three time in PBS+0.1% saponin, three times in PBS, and three times in deionized H2O and mounted with prolong gold^tm mounting media.” left out
as §2

trypsin, sequence (P00761 9-231): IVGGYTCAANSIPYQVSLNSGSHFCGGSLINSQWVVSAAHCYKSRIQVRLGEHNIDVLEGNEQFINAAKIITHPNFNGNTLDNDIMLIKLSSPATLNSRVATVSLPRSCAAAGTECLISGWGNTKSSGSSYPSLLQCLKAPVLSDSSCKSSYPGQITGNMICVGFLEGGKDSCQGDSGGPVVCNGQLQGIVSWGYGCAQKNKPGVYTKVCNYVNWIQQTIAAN

Take “Ac-C(X1)TAEGIKKFEGDGYELFKDNFPAGEKFDNDDTNDQFYTVIF-NH2 [Cy5-MUB40#1]”: the “labelling of colonic mucus layer and infiltrated neutrophils” value in data set [1] is “labelled”. Further, in data set [2], the “labelling of colonic goblet cell granules” value is recorded as “labelled”. Also, the “degradation by trypsin (in words)” value with trypsin is recorded as “almost completely degraded within 3 h”. Also, the “labelling of human neutrophil granules” value is “granular staining” in data set [3] (listed as MUB40#1-Cy5) and “specifically labeled” in data set [3] (listed as MUB40-Cy5). In the data set on human colonic mucus, the “labelling of / binding to human colonic mucus” value was “labelled; also recorded: conserved the ability to bind to and fluorescently label the human colonic mucus”.
